# Measured values published in paper PMC9305971, “Development of [^18F]AmBF3 Tetrazine for Radiolabeling of Peptides: Preclinical Evaluation and PET Imaging of [^18F]AmBF3-PEG7-Tyr^3-Octreotide in an AR42J Pancreatic Carcinoma Model” (Bioconjugate Chemistry, 2022).
# Like-named read-outs stand apart in the source and are kept apart here.
# How the values were obtained:
# Assay type in all cases: in vivo, Rj:NMRI-Foxn1^nu/nu mice
# [1] = PET/CT imaging of [18F]15; conditions: Rj:NMRI-Foxn1^nu/nu, mouse, subcutaneous AR42J tumor, iv, 0.2 nmol, total radioactivity; for SUV at 25 min: 25 min post injection; for SUV at 1.5 h: 90 min post injection
# Method: (§1) [^18F]6 in 10% ethanol–0.01 M PBS was administered intravenously to male Fox Chase SCID mice (CB.17 SCID) (11.0 ± 0.5 MBq, ∼11 nmol, ∼150 μL, n = 4) and healthy female C57BL/6JRj mice (11.3 ± 0.3 MBq, ∼11 nmol, ∼150 μL, n = 4) under 2% isoflurane anesthesia. The PET/CT image was acquired with Inveon PET/CT for 60 min followed by a 15 min static scan 4 h after injection of the tracer. The images of the dynamic scan were reconstructed to time frames 60 × 10, 10 × 60, 4 × 300, and 3 × 600 s. After the second PET imaging (t = 270 ± 1.9 min post injection, n = 4), the organs were harvested and the radioactivity in each tissue sample was measured with a γ-counter and reported as a percentage of injected dose per gram of tissue (% ID/g). [^18F]15 was formulated in 4% ethanol in 0.01 M PBS and administered intravenously (0.2 nmol, 0.80 ± 0.30 MBq; tracer: 150 μL; tracer + blocking dose: 200 μL) to AR42J tumor-bearing Rj:NMRI-Foxn1^nu/nu mice (n = 4) under 2% isoflurane anesthesia. PET/CT images were acquired with Molecubes PET (β-CUBE) coupled with a CT (X-CUBE) (MOLECUBES NV, Ghent, Belgium) with two mice being imaged at the same time under 2% isoflurane anesthesia. Images were reconstructed to time frames 30 × 10, 15 × 60, 4 × 300, and 5 × 600 s. Quantitative image analysis was done with Carimas software (v 2.10, Turku PET Centre, Turku, Finland). Spherical ROIs were hand-drawn based on anatomical CT data and PET signal for the desired organs. The results are presented as standardized uptake values (SUVs).
# (§2) The standardized uptake values (SUVs) were determined from the PET image by drawing regions-of-interest (ROI) around selected organs (heart, liver, kidney, lung, muscle, urinary bladder) with Carimas software (version 2.10, Turku PET Centre, Turku, Finland ) and by measuring the ratio of radioactivity per unit volume of that ROI and normalized to the injected […]
# dose. […]
# [2] = system: subcutaneous AR42J tumor; assay: PET/CT imaging of [18F]15; conditions: i.v., 0.2 nmol
# Method: as §1, §2
# dose. […]
# [3] = Dosimetry from dynamic PET, extrapolated to adult humans (OLINDA/EXM); conditions: extrapolated to adult human
# Method: Dosimetry of [^18F]15 was calculated from the acquired PET/CT imaging data with Molecubes PET (β-CUBE) coupled with a CT (X-CUBE) (Ghent, Belgium). Regions of interest were drawn on source organs, namely, the heart, kidneys, liver, and lungs. Time–activity curves (TAC) were converted from mouse to human time −activity curves with the following equation [drawing 1] where morgan,h and WBh are the organ and whole-body weights for human, respectively. Mass morgan,m and WBm are the organ weight and the whole-body weight for mouse, respectively. Time–activity curves were normalized to 1 MBq injection, and the physical decay correction was removed. After this, the TAC’s were extrapolated into 3000 min, which corresponds in practice to infinity. Numbers of disintegrations in source organs are defined by integrating TAC from time 0 to 3000 min, and this value is input for OLINDA/EXM (version 2.1, Vanderbilt University, 2012) dosimetry software, where ICRP 89 reference adult male (73 kg) and ICRP 103 radiation weighting factors were used. Absorbed doses to each target organ are given in units mGy/MBq, and the effective dose is in units mSv/MBq.
# Table S3. Dosimetry calculations.
# Results after intravenous administration of [18F]15 from OLINDA/EXM (Version 2.1, Vanderbilt University, 2012), where ICRP 89 reference adult male (73 kg) and ICRP 103 radiation weighting factors were used. Absorbed doses to each target organ is given in units mGy/MBq and the effective dose in units mSv/MBq. The difference in radiation burden based on baseline (non-block) and blocked mice is negligible.
# Target organ Baseline Avg. Baseline Std. Blocked Avg. Blocked Std. […]
smiles,measurement,setting,value
C[C@@H](O)[C@@H]1NC(=O)[C@H](CCCCN)NC(=O)[C@@H](Cc2c[nH]c3ccccc23)NC(=O)[C@H](Cc2ccc(O)cc2)NC(=O)[C@@H](NC(=O)[C@@H](Cc2ccccc2)NC(=O)CCOCCOCCOCCOCCON=Cc2ccc(C(=O)NCCOCCOCCOCCNC(=O)OC3CCCc4cnnc(-c5ccc(CC(=O)NCC[N+](C)(C)C[B-](F)(F)F)cc5)c4CC3)cc2)CSSC[C@@H](C(=O)N[C@H](CO)[C@@H](C)O)NC1=O (stereo partly shown) [[^18F]15],SUV at 25 min,"[1]; coadministration of octreotide, read-out: tumor SUV, blocked",0.76 ± 0.04 SUV
same,SUV at 25 min,"[1]; read-out: tumor SUV, baseline",1.01 ± 0.07 SUV
same,SUV at 1.5 h,"[1]; n = 2, coadministration of octreotide, read-out: tumor SUV, blocking",0.76 ± 0.03 SUV
same,SUV at 1.5 h,"[1]; n = 2, read-out: tumor SUV, baseline",0.82 ± 0.14 SUV
same,time of peak radioactivity in tumor (TAC),[2],20 to 30 min
same,"absorbed dose, adrenals",[3]; baseline,0.0190 ± 0.0008 mGy/MBq
same,"absorbed dose, brain",[3]; baseline,0.0102 mGy/MBq
same,"absorbed dose, esophagus",[3]; baseline,0.0129 mGy/MBq
same,"absorbed dose, eyes",[3]; baseline,0.0102 mGy/MBq
same,"absorbed dose, gallbladder wall",[3]; baseline,0.0194 ± 0.0011 mGy/MBq
same,"absorbed dose, heart wall",[3]; baseline,0.0148 mGy/MBq
same,"absorbed dose, kidneys",[3]; baseline,0.0366 ± 0.0016 mGy/MBq
same,"absorbed dose, left colon",[3]; baseline,0.0143 mGy/MBq
same,"absorbed dose, lungs",[3]; baseline,0.0109 mGy/MBq
same,"absorbed dose, osteogenic cells",[3]; baseline,0.0120 mGy/MBq
same,"absorbed dose, pancreas",[3]; baseline,0.0156 ± 0.0002 mGy/MBq
same,"absorbed dose, prostate",[3]; baseline,0.0135 mGy/MBq
same,"absorbed dose, rectum",[3]; baseline,0.0136 mGy/MBq
same,"absorbed dose, red marrow",[3]; baseline,0.0113 mGy/MBq
same,"absorbed dose, right colon",[3]; baseline,0.0151 mGy/MBq
same,"absorbed dose, salivary glands",[3]; baseline,0.0118 mGy/MBq
same,"absorbed dose, small intestine",[3]; baseline,0.0144 mGy/MBq
same,"absorbed dose, spleen",[3]; baseline,0.0137 mGy/MBq
same,"absorbed dose, stomach wall",[3]; baseline,0.0141 mGy/MBq
same,"absorbed dose, testes",[3]; baseline,0.0112 mGy/MBq
same,"absorbed dose, thymus",[3]; baseline,0.0122 mGy/MBq
same,"absorbed dose, thyroid",[3]; baseline,0.0118 mGy/MBq
same,"absorbed dose, total body",[3]; baseline,0.0121 mGy/MBq
same,"absorbed dose, urinary bladder wall",[3]; baseline,0.0134 ± 0.0003 mGy/MBq
same,effective dose,[3]; baseline,0.0112 mSv/MBq
same,"absorbed dose, adrenals","[3]; baseline, listed as [18F]15",0.0190 mGy/MBq
same,"absorbed dose, gallbladder wall","[3]; baseline, listed as [18F]15",0.0194 mGy/MBq
same,"absorbed dose, kidneys","[3]; baseline, listed as [18F]15",0.0366 mGy/MBq
same,"absorbed dose, liver","[3]; baseline, listed as [18F]15",0.0334 mGy/MBq
same,"absorbed dose, pancreas","[3]; baseline, listed as [18F]15",0.0156 mGy/MBq
same,"absorbed dose, urinary bladder wall","[3]; baseline, listed as [18F]15",0.0134 mGy/MBq
same,"absorbed dose, adrenals",[3]; blocked,0.0185 ± 0.0001 mGy/MBq
same,"absorbed dose, brain",[3]; blocked,0.0103 mGy/MBq
same,"absorbed dose, esophagus",[3]; blocked,0.0129 mGy/MBq
same,"absorbed dose, eyes",[3]; blocked,0.0103 mGy/MBq
same,"absorbed dose, gallbladder wall",[3]; blocked,0.0190 ± 0.0011 mGy/MBq
same,"absorbed dose, heart wall",[3]; blocked,0.0150 mGy/MBq
same,"absorbed dose, kidneys",[3]; blocked,0.0337 ± 0.0043 mGy/MBq
same,"absorbed dose, left colon",[3]; blocked,0.0144 mGy/MBq
same,"absorbed dose, liver",[3]; blocked,0.0313 ± 0.0040 mGy/MBq
same,"absorbed dose, lungs",[3]; blocked,0.0106 mGy/MBq
same,"absorbed dose, osteogenic cells",[3]; blocked,0.0121 mGy/MBq
same,"absorbed dose, pancreas",[3]; blocked,0.0154 ± 0.0001 mGy/MBq
same,"absorbed dose, prostate",[3]; blocked,0.0136 mGy/MBq
same,"absorbed dose, rectum",[3]; blocked,0.0137 mGy/MBq
same,"absorbed dose, red marrow",[3]; blocked,0.0114 mGy/MBq
same,"absorbed dose, right colon",[3]; blocked,0.0150 mGy/MBq
same,"absorbed dose, salivary glands",[3]; blocked,0.0119 mGy/MBq
same,"absorbed dose, small intestine",[3]; blocked,0.0145 mGy/MBq
same,"absorbed dose, spleen",[3]; blocked,0.0136 mGy/MBq
same,"absorbed dose, stomach wall",[3]; blocked,0.0141 mGy/MBq
same,"absorbed dose, testes",[3]; blocked,0.0113 mGy/MBq
same,"absorbed dose, thymus",[3]; blocked,0.0122 mGy/MBq
same,"absorbed dose, thyroid",[3]; blocked,0.0119 mGy/MBq
same,"absorbed dose, total body",[3]; blocked,0.0121 mGy/MBq
same,"absorbed dose, urinary bladder wall",[3]; blocked,0.0135 ± 0.0000 mGy/MBq
same,effective dose,[3]; blocked,0.011 mSv/MBq
same,"absorbed dose, adrenals","[3]; blocked, listed as [18F]15",0.0185 mGy/MBq
same,"absorbed dose, gallbladder wall","[3]; blocked, listed as [18F]15",0.0190 mGy/MBq
same,"absorbed dose, kidneys","[3]; blocked, listed as [18F]15",0.0337 mGy/MBq
same,"absorbed dose, liver","[3]; blocked, listed as [18F]15",0.0313 mGy/MBq
same,"absorbed dose, pancreas","[3]; blocked, listed as [18F]15",0.0154 mGy/MBq
same,"absorbed dose, urinary bladder wall","[3]; blocked, listed as [18F]15",0.0135 mGy/MBq
same,"absorbed dose, all organs",[3],below 0.04 mGy/MBq
same,"absorbed dose, all other organs apart from the kidneys and liver",[3],≤ 0.02 mGy/MBq
